Drawing on BindingDB's records for doi:10.1021/jm049864b (Boehringer Ingelheim (Canada), 2004), this text covers IC50 for one compound.

pIC50: −log10 of the molar value. Where a SMILES comes first, the peptide text is derived from it. [ ]: non-standard residue; d: D form. Nva = CCC[C@H](N)C(=O)O

This assay has as its target T1, Genome polyprotein [1027-1206,R1052K]/[1678-1691] (Hepatitis C virus genotype 1b (isolate Japanese), UniProt P26662+Q9WMX2, R1052K).
T1 construct: 1027-1206; 1678-1691
Put plainly: HCV Protease Inhibition Assay. The settings on record: pH 7.5; 23 °C.

T1 sequence (Q9WMX2 1027-1206, looked up, stated change not applied, other chains not shown): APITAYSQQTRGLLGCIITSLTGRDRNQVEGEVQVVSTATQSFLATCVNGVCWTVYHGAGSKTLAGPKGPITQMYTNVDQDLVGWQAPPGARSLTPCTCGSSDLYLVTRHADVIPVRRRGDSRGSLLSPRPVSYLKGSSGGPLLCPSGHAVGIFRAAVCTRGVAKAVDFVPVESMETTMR

In turn, `CCC[C@H](NC(=O)[C@@H]1CCCN1C(=O)[C@@H](NC(=O)[C@@H](NC(=O)[C@H](CC(=O)O)NC(=O)[C@H](CC(=O)O)NC(C)=O)[C@@H](C)CC)C(C)C)C(=O)O` [(2S)-2-{[(2S)-1-[(2S)-2-[(2S)-2-[(3S)-3-[(3S)-3-acetamido-3-formamidopropanoic acid]-3-formamidopropanoic acid]-3-methylpentanamido]-3-methylbutanoyl]pyrrolidin-2-yl]formamido}pentanoic acid] (Ac-DDIVP[Nva]-OH) had a pIC50 of 3.82.

Broadly, the pIC50 is the negative decadic logarithm of the IC50, by convention in mol/L. Read a high pIC50 as a low IC50.
